Experimental data from US20240262793A1, “QUINAZOLINE COMPOUND, AND PREPARATION METHOD THEREFOR AND APPLICATION THEREOF” (SHANGHAI PHARMACEUTICALS HOLDING CO., LTD., priority 2021, published 2024).

Tests used:
Type in all cases: cell-based
Settings in all cases: Homo sapiens, LPS 100 ng/mL
TNF-α = assay: Inhibition of TNF-α in PMA-differentiated, LPS-stimulated THP-1 cells (ELISA of cell supernatant)
Experimental: (§1) (1) Cell culture and inoculation: A stock solution of PMA at 1 mg/mL was diluted with serum-free RP1640 medium to prepare a 100 ng/mL PMA solution. Normal cultured THP-1 cells were centrifuged, resuspended in a complete medium (RP1640 medium containing 10% FBS), and counted. The cell density was adjusted to 2×10^6 cells/mL. An equal volume of 100 ng/mL PMA solution was then added, resulting in a cell density of 1×10^6 cells/mL and a final PMA concentration of 50 ng/mL. 100 μL of the cell suspension was seeded into each well of a 96-well cell culture plate with 1×10^5 cells per well. The 96-well cell culture plate was then incubated at 37° C. in a 5% CO2 atmosphere for 24 hours.
(§2) (2) Drug treatment of cells: On the second day, LPS was added to the complete medium to adjust the final concentration to 100 ng/mL, and the compound was prepared using this LPS-containing medium. The compound was added to the appropriate cell wells according to the prepared concentration gradient. The positive control group (LPS+) was a culture medium solution containing a final concentration of 100 ng/mL LPS and 0.1% DMSO without drugs, while the negative control group (LPS-) was a culture medium solution containing 0.1% DMSO without LPS. The volume in each well was 100 μL.
(§3) (3) Test sample collection: The mixture was centrifuged at 1000 rpm for 5 minutes and the cell supernatant and cell precipitate were collected separately. The cell supernatant was used to detect TNF-α and IL-6, and the cell precipitate was collected for IL-1β detection. After collecting the cell supernatant, the remaining liquid in the wells was discarded and 100 μL of cell lysis solution (20 mM Tris 8.0; 2 mM EDTA; 0.5% Triton X-100) was added to each well for complete lysis.
(§4) (4) Sample detection: The enzyme-linked immunosorbent assay (ELISA) was used to detect the content of each cytokine. The specific steps were performed according to the instructions provided in the corresponding kit manuals. The catalog numbers of kits are as follows: • Human TNF-alpha Quantikine ELISA Kit, Catalog # STA00D • Human IL-1 beta/IL-1F2 Quantikine ELISA Kit, Catalog # SLB50 • Human IL-6 Quantikine ELISA Kit, Catalog # S6050.
(§5) (5) Data analysis: The in vitro inhibitory activity of the compounds was calculated using the following formula: […]

IL-1β = assay: Inhibition of IL-1β in PMA-differentiated, LPS-stimulated THP-1 cells (ELISA of cell lysate)
Experimental: as §1, §2, §3, §4, §5

IL-6 = assay: Inhibition of IL-6 in PMA-differentiated, LPS-stimulated THP-1 cells (ELISA of cell supernatant)
Experimental: as §1, §2, §3, §4, §5

Compound	IC50 (TNF-α; THP-1, Table 7, PMA 50 ng/mL)	IC50 (IL-1β; THP-1, Table 7, PMA 50 ng/mL)	IC50 (IL-6; THP-1, Table 7, PMA 50 ng/mL)	IC50 (TNF-α; THP-1, Table 8, PMA 50 ng/mL)	IC50 (IL-1β; THP-1, Table 8, PMA 50 ng/mL)	IC50 (IL-6; THP-1, Table 8, PMA 50 ng/mL)
COc1ccc(CN(CCO)CCCC(C)Nc2ccnc3cc(Cl)ccc23)cc1F (stereo not drawn) [Example 31, 2-((4-((7-Chloroquinolin-4-yl)amino)pentyl)(3-fluoro-4-methoxybenzyl)amino)ethan-1-ol]	7.13 µM	8.64 µM	1.31 µM			
O=C1CNC(=O)N1CCCCCNc1ncnc2cc(Cl)ccc12 [Example 67, 3-(5-((7-Chloroquinazolin-4-yl)amino)pentyl)imidazoline-2,4-dione]				65.2 µM	105 µM	4.6 µM
CC(CCCN(CCO)Cc1cccc(C(F)(F)F)c1)Nc1ccnc2cc(Cl)ccc12 (stereo not drawn) [Example 24, 2-((4-((7-Chloroquinolin-4-yl)amino)pentyl)(3-(trifluoromethyl)benzyl)amino)ethan-1-ol]	4.77 µM	4.46 µM	1.2 µM			
CC(CCCN(CCO)Cc1c(F)cccc1Cl)Nc1ccnc2cc(Cl)ccc12 (stereo not drawn) [Example 29, 2-((2-Fluoro-6-chlorobenzyl)(4-((7-chloroquinolin-4-yl)amino)pentyl)amino)ethan-1-ol]	2.63 µM	4.11 µM	0.36 µM			
CC(CCCN1C(=O)NC2(CCCC2)C1=O)Nc1ncnc2cc(Cl)ccc12 (stereo not drawn) [Example 72, 3-(4-((7-Chloroquinazolin-4-yl)amino)pentyl)-1,3-diazaspiro[4.4]nonane-2,4-dione]				7.5 µM	12.8 µM	0.23 µM
COC(=O)c1ccc(CN(CCO)CCCCCNc2ncnc3cc(Cl)ccc23)cc1 [Example 44, Methyl 4-(((5-((7-chloroquinazolin-4-yl)amino)pentyl)(2-hydroxyethyl)amino)methyl)benzoate]	19.9 µM	21.1 µM	0.77 µM			
CC(CCCN1C(=O)NC2(CCC2)C1=O)Nc1ncnc2cc(Cl)ccc12 (stereo not drawn) [Example 71, 7-(4-((7-Chloroquinazolin-4-yl)amino)pentyl)-5,7-diazaspiro[3.4]octane-6,8-dione]				12.7 µM	16.1 µM	0.64 µM
C[C@@H](CCCN1C(=O)CNC1=O)Nc1ncnc2cc(Cl)ccc12 [Example 75, (S)-3-(4-((7-Chloroquinazolin-4-yl)amino)pentyl)imidazolidine-2,4-dione]				45.6 µM	53.8 µM	4.28 µM
CC(CCCN(CCO)Cc1ccc(F)cc1F)Nc1ccnc2cc(Cl)ccc12 (stereo not drawn) [Example 18, 2-((4-((7-Chloroquinolin-4-yl)amino)pentyl)(2,4-difluorobenzyl)amino)ethan-1-ol]	3.26 µM	2.94 µM	0.226 µM			
CC(CCCN(CCO)Cc1ccc(S(C)(=O)=O)cc1)Nc1ncnc2cc(Cl)ccc12 (stereo not drawn) [Example 40]	10.1 µM	0.7 µM	0.6 µM			
CCN(CCO)CCCC(C)Nc1ccnc2cc(Cl)ccc12 (stereo not drawn) [HCQ, Hydroxychloroquine, reference compound]	69.3 µM	62.2 µM	32 µM	90.5 µM	164 µM	123 µM
CC(CCCN(CCO)Cc1ccc(-n2cccn2)cc1)Nc1ncnc2cc(Cl)ccc12 (stereo not drawn) [Example 39]	7.89 µM	7.4 µM	0.77 µM			
CN1CC(=O)N(CCCCNc2ncnc3cc(F)ccc23)C1=O [Example 58, 3-(4-((7-Fluoroquinazolin-4-yl)amino)butyl)-1-methylimidazoline-2,4-dione]				90.7 µM	86.5 µM	2.58 µM
CC(CCCN1C(=O)CN(C)C1=O)Nc1ccnc2cc(Cl)ccc12 (stereo not drawn) [Example 2, 3-(4-((7-Chloroquinolin-4-yl)amino)pentyl)-1-methylimidazolidine-2,4-dione]	10.4 µM	17.9 µM	1.17 µM			
CC(CCCN1CC2(CCOCC2)C1)Nc1ccnc2cc(Cl)ccc12 (stereo not drawn) [Example 7, N-(5-(7-Oxa-2-azaspiro[3.5]nonan-2-yl)pentan-2-yl)-7-chloroquinolin-4-amine]	12.2 µM	30.1 µM	2.06 µM			
